In US12527804B2, “Microemulsion delivery systems for alcohol-soluble species including DHEA, pregnenolone, and chrysin for reducing menopausal symptoms” (Quicksilver Scientific, Inc., priority 2021, dated 2026):
Values after ≈ are worked out from the molar mass of the structure shown. Read-outs that look alike come from different tables or passages of the source.

Tests used:
[1] = system: peri- and postmenopausal subjects; experiment: Combination therapy of MOIW microemulsion with progesterone, menopausal symptoms; type: in vivo, human; details: most perimenopausal subjects, administered daily in combination with MOIW microemulsion
Description: Dosing for this combination therapy includes use of the present MOIW microemulsion as previously described with the addition of progesterone. For use in the alleviation of menopausal symptoms, from 5 mg to 18 mg of progesterone is preferably administered daily, with 8 mg to 16 mg of progesterone providing a therapeutically effective dose for postmenopausal subjects and with 8 mg to 10 mg of progesterone providing a therapeutically effective dose for perimenopausal subjects. A therapeutically effective dose for most perimenopausal subjects was determined to be approximately 8 mg.
A preferred dosing for this combination therapy includes intra-oral administration of the MOIW microemulsion ante meridiem with topical administration of the thickened MOIW post meridiem. For perimenopausal subjects using intermittent dosing of the MOIW microemulsion, the same intermittent dosing is also preferred for the thickened MOIW microemulsion progesterone topical.

[2] = Solubility of DHEA in ethanol and MCT oil; type: physicochemical
Source text: An alcohol-soluble species is a species that is insoluble in water and has a greater solubility in ethanol than in medium chain triglyceride (MCT) oils. […] Alcohol-soluble species are preferably pharmacologically active, more preferably are a drug or a supplement, and neither include nor are water. Thus, liquids and solids may exist that technically are soluble in alcohol, but because they also are soluble in water or more or equivalently soluble in MCT oils than in ethanol are not “alcohol-soluble species”.
Solubilized means that the alcohol-soluble species to be delivered is in the solution of the droplet. […] Thus, if either average particle diameters greater than 200 nm or precipitated crystals visible to the naked eye form, the alcohol-soluble species is not solubilized in the solution of the droplet. If an alcohol-soluble species is not solubilized in the solution, it is insoluble in the solution. In many respects, solubility may be thought of as a concentration dependent continuum. For example, the following descriptive terms may be used to express solubility of a solute in a solvent (grams solid/mL of solvent) at 25 degrees Celsius: […]

SMILES | therapeutically effective dose of progesterone [1] | solubility ([2]; ethanol, organic solvent or mixture, read-out: solubility in ethanol) [mg/mL] | solubility ([2]; medium chain triglyceride (MCT) oil, oil or lipid, MCT oil, read-out: solubility in MCT oil) [mg/mL]
CC(=O)[C@H]1CC[C@H]2[C@@H]3CCC4=CC(=O)CC[C@]4(C)[C@H]3CC[C@]12C [progesterone] | approximately 8 mg | – | –
C[C@]12CC[C@H](O)CC1=CC[C@@H]1[C@@H]2CC[C@]2(C)C(=O)CC[C@@H]12 [DHEA, dehydroepiandrosterone (3-beta-hydroxyandrosteron-5-en-17-one)] | – | ~150 (≈ 520 mM) | ~10 (≈ 34.7 mM)
